According to the supplement of paper PMC13380429:
Counter-ions that a name gives are not always drawn. ± gives the standard deviation of the averaged measurements.

What was measured:
Details in all cases: 72 h
[1] = system: Caco-2; assay: cell viability relative to DMSO; higher = less toxic
[2] = system: U2OS; assay: as above
[3] = system: HepG2; assay: as above
[4] = system: Vero E6; assay: as above
[5] = system: Caco-2; assay: drug sensitivity score (DSS) for viability; higher = more toxic; extreme values may be limits of the assay
[6] = system: U2OS; assay: as above
[7] = system: HepG2; assay: as above
[8] = system: Vero E6; assay: as above
[9] = system: Caco-2; assay: relative viability EC50 (midpoint between 100% and the lowest measured viability); higher = less toxic
[10] = system: U2OS; assay: as above
[11] = system: HepG2; assay: as above
[12] = system: Vero E6; assay: as above
[13] = system: Calu-3; assay: cell viability relative to DMSO; higher = less toxic
[14] = system: Calu-3; assay: drug sensitivity score (DSS) for viability; higher = more toxic; extreme values may be limits of the assay
[15] = system: Calu-3; assay: relative viability EC50 (midpoint between 100% and the lowest measured viability); higher = less toxic

| Compound | cell viability ([1]; 1 nM) [%] | cell viability ([1]; 10 nM) [%] | cell viability ([1]; 100 nM) [%] | cell viability ([1]; 1000 nM) [%] | cell viability ([1]; 10000 nM) [%] | cell viability ([2]; 1 nM) [%] | cell viability ([2]; 10 nM) [%] | cell viability ([2]; 100 nM) [%] | cell viability ([2]; 1000 nM) [%] | cell viability ([2]; 10000 nM) [%] | cell viability ([3]; 1 nM) [%] | cell viability ([3]; 10 nM) [%] | cell viability ([3]; 100 nM) [%] | cell viability ([3]; 1000 nM) [%] | cell viability ([3]; 10000 nM) [%] | cell viability ([4]; 1 nM) [%] | cell viability ([4]; 10 nM) [%] | cell viability ([4]; 100 nM) [%] | cell viability ([4]; 1000 nM) [%] | cell viability ([4]; 10000 nM) [%] | drug sensitivity score [5] | drug sensitivity score [6] | drug sensitivity score [7] | drug sensitivity score [8] | relative viability EC50 [9] [µM] | relative viability EC50 [10] [µM] | relative viability EC50 [11] [µM] | relative viability EC50 [12] [µM] | cell viability ([13]; 1 nM) [%] | cell viability ([13]; 10 nM) [%] | cell viability ([13]; 100 nM) [%] | cell viability ([13]; 1000 nM) [%] | cell viability ([13]; 10000 nM) [%] | drug sensitivity score [14] | relative viability EC50 [15] [µM] |
| --- | --- | --- | --- | --- | --- | --- | --- | --- | --- | --- | --- | --- | --- | --- | --- | --- | --- | --- | --- | --- | --- | --- | --- | --- | --- | --- | --- | --- | --- | --- | --- | --- | --- | --- | --- |
| C/C(=N\NC(=O)[C@@H]1C(=O)NC[C@H]1c1ccccc1)c1cccc(Br)c1 | 102 | 97.5 | 104 | 96 | 101 | 99.9 | 100 | 103 | 94.1 | 97.5 | 99.4 | 99.8 | 101 | 103 | 92.4 | 96.3 | 97.9 | 94 | 98.2 | 96.4 | 0 | 0 | 0 | 0 | > 10 | > 10 | > 10 | > 10 | – | – | – | – | – | – | – |
| COc1ccc(CNC(=O)/C=C/c2ccc3[nH]cc(CCN(C)C)c3c2)cc1 | 106 | 95 | 93.8 | 96.6 | 98.7 | 102 | 97.4 | 98.1 | 98.9 | 99.3 | 107 | 90.6 | 93.5 | 94 | 96.8 | 98.5 | 98 | 101 | 101 | 102 | 0 | 0 | 0 | 0 | > 10 | > 10 | > 10 | > 10 | – | – | – | – | – | – | – |
| CN(C)/N=N/c1ccc(C(=O)O)cc1 [CB-10-277] | 95.8 | 97.3 | 101 | 96.6 | 102 | 96.6 | 104 | 98.1 | 99.9 | 104 | 102 | 95.9 | 113 | 102 | 105 | 98.7 | 98.3 | 97.6 | 97.2 | 106 | 0 | 0 | 0 | 0 | > 10 | > 10 | > 10 | > 10 | – | – | – | – | – | – | – |
| O=C(CN1C(=O)C2(CCCC2)NC[C@H]1c1cc(F)cc(F)c1)Nc1ccc2c(c1)C[C@@]1(C2)C(=O)Nc2ncccc21 [MK-3207] | 99 | 101 | 93 | 106 | 88.8 | 104 | 101 | 102 | 96.8 | 101 | 91.2 | 106 | 101 | 113 | 101 | – | – | – | – | – | 0 | 0 | 0 | – | > 10 | > 10 | > 10 | – | 96.6 | 92.9 | 98.2 | 93.4 | 109 | 0 | > 10 |
| O=c1cc(N2CCN(c3cccc(C(F)(F)F)c3)CC2)[nH]c(=O)n1C1CCCCC1 [ML179] | 95.5 | 96.8 | 97.2 | 98 | 96.5 | 101 | 97.5 | 100 | 97.9 | 101 | 100 | 105 | 94.4 | 82.6 | 77.7 | 102 | 101 | 98.4 | 100 | 99.7 | 0 | 0 | 2.7 | 0 | > 10 | > 10 | > 10 | > 10 | – | – | – | – | – | – | – |
| CC(C)c1ccc(-c2cc(=O)c3ccccc3o2)cc1 [MN-64] | 105 | 98.8 | 105 | 84.9 | 81.1 | 102 | 99.4 | 102 | 95.2 | 88.2 | 91.9 | 97.6 | 94.8 | 94.8 | 65.1 | 96.6 | 94.2 | 98.9 | 98 | 61.5 | 1.9 | 0.2 | 2.5 | 2.2 | > 10 | > 10 | – | – | 113 | 105 | 97.2 | 96.1 | 72.7 | 1.7 | – |
| O=C1C(Cl)=C(N2CCOCC2)C(=O)N1c1ccc(Cl)c(Cl)c1 [RI-1] | 97.2 | 94.9 | 93.2 | 106 | 110 | 89.2 | 97.2 | 96.8 | 96.7 | 101 | 98.9 | 107 | 103 | 97.3 | 98.6 | 102 | 95.5 | 97.7 | 97.1 | 107 | 0 | 0 | 0 | 0 | > 10 | > 10 | > 10 | > 10 | – | – | – | – | – | – | – |
| O=C(NCc1cccc(O)c1)Nc1nc(-c2ccncc2)cs1 [RKI-1447] | 97.8 ± 5.2 | 97 ± 0.14 | 94.8 ± 6.2 | 96.6 ± 1.1 | 81.3 ± 0.14 | 98.8 ± 2.4 | 99.3 ± 2.8 | 101 ± 4.9 | 87.5 ± 3.1 | 61.8 ± 2.3 | 94.2 ± 6 | 108 ± 9.9 | 101 ± 3.4 | 91.95 ± 0.49 | 73.1 ± 8.9 | 99.5 ± 3.7 | 100 ± 4.4 | 91.1 ± 13 | 76.1 ± 0.42 | 73.4 ± 0.28 | 0.65 ± 0.49 | 3.6 ± 0.57 | 2.05 ± 1.1 | 5.05 ± 1.8 | > 10 | – | – | – | 97.9 | 128 | 146 | 148 | 144 | 0 | > 10 |
| [O-][S+](c1ccccc1)c1ccc2nnnn2n1 (stereo not given) [Ro-106-9920] | 89.7 | 92.3 | 92.1 | 95.4 | 39.5 | 99.9 | 103 | 95 | 95.9 | 2.5 | 106 | 102 | 110 | 98.1 | 1.1 | 97.7 | 95.6 | 95.9 | 90.5 | 12.1 | 4 | 6 | 5.8 | 6.4 | 2.54 | 2.84 | 3.03 | 2.28 | 96.3 | 94.9 | 105 | 98.8 | 63.7 | 1.9 | – |
| O=C1NC(=O)/C(=C/c2cccc(C(F)(F)F)c2)S1 [SMI-4a] | 97.7 | 101 | 105 | 104 | 92.7 | – | – | – | – | – | 96.4 | 112 | 91 | 97.4 | 105 | 104 | 101 | 99.1 | 101 | 95.9 | 0 | – | 0 | 0 | > 10 | – | > 10 | > 10 | 101 | 98.1 | 95.4 | 100 | 97.4 | 0 | > 10 |
| FC(F)(F)c1ccccc1-n1ccnc1 [TRIM] | 106 | 104 | 98.6 | 93.5 | 108 | 99.6 | 97.8 | 103 | 95.7 | 103 | 96.7 | 110 | 108 | 103 | 89.5 | – | – | – | – | – | 0 | 0 | 0 | – | > 10 | > 10 | > 10 | – | 98.7 | 99.5 | 92.6 | 97 | 97.2 | 0 | > 10 |
| Cc1cn(C[C@H](N)C(=O)O)c(=O)n(Cc2ccsc2C(=O)O)c1=O [UBP-310] | 99.7 | 93.6 | 101 | 93 | 99.5 | 98.8 | 97.3 | 98.5 | 97 | 98.5 | 96.6 | 91.3 | 94.6 | 91.2 | 88.1 | 97.3 | 101 | 98.3 | 97.6 | 97.3 | 0 | 0 | 0 | 0 | > 10 | > 10 | > 10 | > 10 | – | – | – | – | – | – | – |
| CN[C@H](CC(C)C)C(=O)N[C@H]1C(=O)N[C@@H](CC(N)=O)C(=O)N[C@H]2C(=O)N[C@H]3C(=O)N[C@H](C(=O)N[C@H](C(=O)O)c4cc(O)cc(O)c4-c4cc3ccc4O)[C@H](O)c3ccc(c(Cl)c3)Oc3cc2cc(c3O[C@@H]2O[C@H](CO)[C@@H](O)[C@H](O)[C@H]2O[C@H]2C[C@](C)(N)[C@H](O)[C@H](C)O2)Oc2ccc(cc2Cl)[C@H]1O [VANCOMYCIN HYDROCHLORIDE] | 80.7 | 92.2 | 94.9 | 99.8 | 100 | 99.7 | 95.6 | 97.4 | 101 | 106 | 93.7 | 105 | 105 | 96.4 | 125 | 98.1 | 99.5 | 98.3 | 98.5 | 104 | 0 | 0 | 0 | 0 | > 10 | > 10 | > 10 | > 10 | – | – | – | – | – | – | – |
| CCCCCCc1ccc(O)cc1O.Nc1c2ccccc2nc2ccccc12 [acrisorcin] | 99.5 | 103 | 96.6 | 96.7 | 47.4 | 100 | 101 | 100 | 96.1 | 27.9 | 103 | 106 | 95.3 | 77.9 | 0.3 | 105 | 102 | 102 | 91.7 | 0.3 | 3.3 | 4.5 | 9 | 6.8 | 2.66 | 2.75 | 1.65 | 2.49 | 99.1 | 88.3 | 101 | 96.4 | 60.7 | 2.5 | – |
| NCCCNCCSP(=O)(O)O [amifostine] | 88.8 | 100 | 86.4 | 100 | 92.7 | – | – | – | – | – | 103 | 100 | 96.6 | 93 | 98.2 | 104 | 108 | 106 | 97.3 | 102 | 0 | – | 0 | 0 | > 10 | – | > 10 | > 10 | 95.8 | 101 | 101 | 100 | 98 | 0 | > 10 |
